Test results from publication PMC7039932, “Development of Relaxin-3 Agonists and Antagonists Based on Grafted Disulfide-Stabilized Scaffolds” (Frontiers in Chemistry, 2020).
Each block holds one molecule with its values, some of them ahead of it. Where a SMILES comes first, the peptide text is derived from it. Bridges are numbered along the chain shown (N, C = ends). Where no end group is shown, it is not given here.

Assays:
In vitro serum stability = format: in vitro ADME, human; settings: for half-life at 2.5 µg/mL: human male pooled serum, 570 μl spiked with 30 μl peptide stock (0.05 μg/μl in H2O), quenched with 0.1 M ammonium acetate pH 3, SPE, LC-MS MRM, one phase decay, at least three replicates, read-out: Half-life in serum (T1/2) (converted)
Protocol: The in vitro serum stability was determined by peptide spiking, as previously described (Hossain et al., [2015]). Briefly, 570 μl human male pooled serum was spiked with 30 μl peptide stock solution (0.05 μg/μl in H2O). 100 μl samples were taken out at different time points and quenched with 900 μl ammonium acetate (0.1 M, pH 3). Samples were left on ice for 30 min before being extracted using solid phase extraction cartridges (Oasis HLB 3cc, Waters). Eluted samples were then lyophilized and reconstituted in 1% formic acid. The amount of intact peptide is reported relative to the amount of peptide available at timepoint 0 hr. Quantification was carried out using multiple reaction monitoring on a triple-quad LC-MS (API2000, AB Sciex) and the data analyzed using one phase decay in Prism 7.

RXFP3 [1] = biological target: T1, RXFP3 (Homo sapiens, UniProt Q9NSD7); experiment: Inhibition of forskolin-induced cAMP accumulation, pCRE-β-galactosidase reporter, CHO-K1 cells stably expressing RXFP3; format: cell-based; settings: CHO-K1-RXFP3 cells with pCRE-β-galactosidase reporter; 5 μM forskolin; mean ± SEM, number in parentheses = independent experiments in triplicate
T1 construct: expressed in transfected cells; host or cells: CHO-K1 cells stably expressing RXFP3
T1 sequence (Q9NSD7 1-469): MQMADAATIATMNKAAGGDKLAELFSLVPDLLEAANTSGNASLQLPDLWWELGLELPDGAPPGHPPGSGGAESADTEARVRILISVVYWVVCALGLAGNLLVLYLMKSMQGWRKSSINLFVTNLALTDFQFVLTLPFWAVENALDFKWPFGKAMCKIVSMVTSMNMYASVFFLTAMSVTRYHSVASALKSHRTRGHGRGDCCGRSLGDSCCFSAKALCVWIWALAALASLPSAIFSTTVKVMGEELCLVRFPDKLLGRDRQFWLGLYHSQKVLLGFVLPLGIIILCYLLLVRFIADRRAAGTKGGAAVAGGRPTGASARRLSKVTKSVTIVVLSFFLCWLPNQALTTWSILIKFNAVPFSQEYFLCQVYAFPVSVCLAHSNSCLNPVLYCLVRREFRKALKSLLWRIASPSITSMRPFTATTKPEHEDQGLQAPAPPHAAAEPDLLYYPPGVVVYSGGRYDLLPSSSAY
Protocol: The affinity and activity of the grafted peptides were determined as previously described (Haugaard-Kedström et al., [2015]). Briefly, for competition binding studies CHO-K1 cells stably expressing RXFP3 were incubated with 5 nM Eu-DTPA-R3 B1-22R and increasing concentrations of peptide analogs. Unlabeled R3 B1-22R was used as reference compound. The europium was detected by the addition of enhancement solution and fluorescence recorded using an excitation of 340 nm and emission reading at 614 nm. For agonists the ability of analogs to inhibit cAMP accumulation were tested in CHO-K1 cells stably expressing RXFP3 transfected with a pCRE-β-galactosidase reporter plasmid. Cells were stimulated with 5 μM forskolin and incubated with increasing concentrations of relaxin-3 analogs as previously described (Shabanpoor et al., [2012]). […] Data are expressed as mean ± SEM and analyzed using Prism 8 (GraphPad).
The binding affinity of the grafted peptides were determined using CHO cells stably expressing RXFP3 by measuring increasing concentrations of the grafted peptides' ability to compete for the binding site with europium labeled R3 B1-22R (Haugaard-Kedström et al., [2015]). Activation was measured by assessing the ability of the analogs to inhibit cAMP accumulation induced by forskolin in a reporter assay, as RXFP3 couples to an inhibitory G-protein.

RXFP3 [2] = biological target: T2, RXFP3 (Homo sapiens, UniProt Q9NSD7); experiment: competition binding with Eu-R3 B1-22R on CHO-K1 cells
T2 chain: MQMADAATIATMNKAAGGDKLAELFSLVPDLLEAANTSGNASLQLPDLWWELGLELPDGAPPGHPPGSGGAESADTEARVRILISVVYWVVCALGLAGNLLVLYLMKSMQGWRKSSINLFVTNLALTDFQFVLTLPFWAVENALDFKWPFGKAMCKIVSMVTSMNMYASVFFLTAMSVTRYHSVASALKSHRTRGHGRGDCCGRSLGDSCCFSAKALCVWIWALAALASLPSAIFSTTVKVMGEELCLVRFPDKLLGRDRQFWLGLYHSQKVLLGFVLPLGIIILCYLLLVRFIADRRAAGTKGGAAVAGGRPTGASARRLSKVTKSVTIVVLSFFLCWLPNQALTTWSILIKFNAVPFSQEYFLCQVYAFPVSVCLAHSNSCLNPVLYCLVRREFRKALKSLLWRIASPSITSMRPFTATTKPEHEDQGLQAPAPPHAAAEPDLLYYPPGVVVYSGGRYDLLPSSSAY

Molecule: CC[C@H](C)[C@H](NC(=O)[C@H](Cc1ccccc1)NC(=O)[C@H](CCC(=O)O)NC(=O)[C@H](CCCNC(=N)N)NC(=O)CNC(=O)[C@H](CS)NC(=O)[C@H](CC(C)C)NC(=O)[C@H](CCCNC(=N)N)NC(=O)[C@@H](NC(=O)CNC(=O)[C@H](Cc1ccc(O)cc1)NC(=O)[C@@H]1CCCN1C(=O)[C@H](C)NC(=O)[C@H](C)NC(=O)[C@@H](N)CCCNC(=N)N)C(C)C)C(=O)N[C@@H](CCCNC(=N)N)C(=O)N[C@@H](C)C(=O)N[C@H](C(=O)N[C@H](C(=O)N[C@@H](Cc1ccccc1)C(=O)N[C@H](C(=O)N[C@@H](CS)C(=O)NCC(=O)NCC(=O)N[C@@H](CO)C(=O)N[C@@H](CCCNC(=N)N)C(=O)N[C@@H](Cc1c[nH]c2ccccc12)C(=O)O)[C@@H](C)O)[C@@H](C)CC)C(C)C [Analog 2, reference compound]
half-life at 2.5 µg/mL (In vitro serum stability): 0.0517 h

Molecule: CC[C@H](C)[C@@H]1NC(=O)[C@H](C)NC(=O)[C@@H]2CSSC[C@H](N)C(=O)N[C@@H](CC(N)=O)C(=O)N[C@@H](CSSC[C@@H](C(=O)N[C@H](C(=O)N[C@H](C(=O)N[C@@H](Cc3ccccc3)C(=O)N[C@H](C(=O)N[C@@H](CO)C(=O)N[C@@H](CCCNC(=N)N)C(N)=O)[C@@H](C)O)[C@@H](C)CC)C(C)C)NC(=O)[C@H](CCCNC(=N)N)NC1=O)C(=O)N[C@@H](CCCCN)C(=O)N[C@@H](C)C(=O)N1CCC[C@H]1C(=O)N[C@@H](CCC(=O)O)C(=O)N[C@@H]([C@@H](C)O)C(=O)N[C@@H](C)C(=O)N[C@@H](CCCNC(=N)N)C(=O)N2 [Analog 9] (H-CNCKAPETARCAIRCVIFTSR-NH2; disulfide 1-11, 3-15)
cAMP activity pEC50 ± SEM (RXFP3 [1]): No activity
half-life at 2.5 µg/mL (In vitro serum stability): 6.6 h

Molecule: CC[C@H](C)[C@@H]1NC(=O)[C@H](C)NC(=O)[C@@H]2CSSC[C@H](N)C(=O)N[C@@H](CC(N)=O)C(=O)N[C@@H](CSSC[C@@H](C(=O)N[C@H](C(=O)N[C@H](C(=O)N[C@@H](Cc3ccccc3)C(=O)N[C@H](C(=O)N[C@@H](CO)C(=O)NCC(=O)NCC(=O)N[C@@H](CO)C(=O)N[C@@H](CCCNC(=N)N)C(=O)N[C@@H](Cc3c[nH]c4ccccc34)C(=O)O)[C@@H](C)O)[C@@H](C)CC)C(C)C)NC(=O)[C@H](CCCNC(=N)N)NC1=O)C(=O)N[C@@H](CCCCN)C(=O)N[C@@H](C)C(=O)N1CCC[C@H]1C(=O)N[C@@H](CCC(=O)O)C(=O)N[C@@H]([C@@H](C)O)C(=O)N[C@@H](C)C(=O)N[C@@H](CCCNC(=N)N)C(=O)N2 [Analog 3] (H-CNCKAPETARCAIRCVIFTSGGSRW-OH; disulfide 1-11, 3-15)
half-life at 2.5 µg/mL (In vitro serum stability): 12.8 h
Fold improvement in serum stability versus linear counterpart (In vitro serum stability; human serum T1/2 of grafted peptide relative to linear R3 B1-27 or R3 B1-22R): 250 fold

Molecule: RAAPYGVRLSGREFIRAVIFTSR-NH2 [Analog 8, reference compound]
half-life at 2.5 µg/mL (In vitro serum stability): 0.0667 h

Molecule: RAAPYGVRLSGREFIRAVIFTSR-NH2 [Analog 8]
cAMP activity pEC50 ± SEM (RXFP3 [1]): No activity

Ki (RXFP3 [2]): 20.4 nM
B1: relaxin-3 (R3 acid, analog 1) (protein)
chain 1: RAAPYGVRLCGREFIRAVIFTCGGSRW
chain 2: DVLAGLSSSCCKWGCSKSEISSLC

Ki (RXFP3 [2]): 1230 nM
Molecule: MARYMLLLLLAVWVLTGELWPGAEARA [relaxin-3 B-chain (R3 B1-27, analog 2) B-chain 1-27]
